Source: patent US7968521B2, “Stable cystal of protected pseudouridine” (Yamasa Corporation, priority 2005, dated 2011)

Experiments:
[1] = Stability (2): storage in a desiccator at 25±2° C. and a relative humidity of 33%, 57% or 75%, percent remaining by HPLC; format: physicochemical; details: fourteen days; for Percent remaining (%) RH 33% / Percent remaining (%) RH 57% / Percent remaining (%) RH 75%: desiccator, HPLC
Description: The crystalline 5′-O-(4,4′-dimethoxytrityl)pseudouridine produced in Example 1 was maintained in a desiccator at 25±2° C. and a relative humidity of 33%, 57%, or 75%. Fourteen days after, the percent remaining of the compound was determined through HPLC, and the value was compared with that of the same compound in amorphous form, which had been separately prepared, so as to evaluate stability. […] At a relative humidity of 75%, the stability clearly varied between the two samples.

[2] = Stability (1): storage in a sealed vessel at 60° C. and a relative humidity of 30%, percent remaining by HPLC; format: physicochemical; details: relative humidity 30%; for Percent remaining (%) Day 3 / Percent remaining (%) Day 14 / Percent remaining (%) Day 23: sealed vessel; for Percent remaining (%) Day 3: Day 3, HPLC; for Percent remaining (%) Day 14: Day 14, HPLC; for Percent remaining (%) Day 23: Day 23, HPLC
Description: The crystalline 5′-O-(4,4′-dimethoxytrityl)pseudouridine produced in Example 1 was maintained in a sealed vessel at 60° C. and a relative humidity of 30%. Thereafter, the percent remaining of the compound was determined through HPLC, and the value was compared with that of the same compound in amorphous form, which had been separately prepared, so as to evaluate stability.

Compound	Percent remaining (%) RH 33% [1] [%]	Percent remaining (%) RH 57% [1] [%]	Percent remaining (%) RH 75% [1] [%]	Percent remaining (%) Day 3 [2] [%]	Percent remaining (%) Day 14 [2] [%]	Percent remaining (%) Day 23 [2] [%]	stability against moisture compared with the amorphous form ([1]; relative humidity 33%, 57% or 75%)	thermal stability compared with the compound of amorphous form [2]
COc1ccc(C(OC[C@H]2O[C@@H](c3c[nH]c(=O)[nH]c3=O)[C@H](O)[C@@H]2O)(c2ccccc2)c2ccc(OC)cc2)cc1 [Amorphous, 5′-O-(4,4′-dimethoxytrityl)pseudouridine, reference compound]	98.0	96.7	0.1	97.8	88.6	62.1	–	–
COc1ccc(C(OC[C@H]2O[C@@H](c3c[nH]c(=O)[nH]c3=O)[C@H](O)[C@@H]2O)(c2ccccc2)c2ccc(OC)cc2)cc1 [Crystalline, 5′-O-(4,4′-dimethoxytrityl)pseudouridine]	98.7	98.5	60.7	99.0	97.6	95.7	more stable against moisture	higher thermal stability
